Like-named read-outs stand apart in the source and are kept apart here.
Legend:
[1] = target: T1, human full length active PARP2 (Homo sapiens, UniProt Q9UGN5); assay: PARP inhibitor assay, fluorescence-based, PARP2; assay type: biochemical
T1 construct: human full length active PARP1 (CS207770, Merck), PARP2 (ab198766, Abeam); purchased Abcam ab198766
Source text: (§1) The PARP inhibitor assay is a direct fluorescence-based concentration measurement of reaction product formation. The assay reagents are sold as a commercial kit (see http://www.merckmillipore.com/GB/en/product/PARP1-Enzyme-Activity-Assay,MM_NF-17-10149). To measure PARP inhibition, the NAD+ substrate concentration should be set at Km (the Michaelis constant) to enable identifications of all types of inhibitors (competitive, uncompetitive and non-competitive (allosteric) (the latter represents a mode of action of Zn-finger inhibitors)), direct calculation of inhibitor potency (Ki) and in vivo modelling. (See in and literature sited therein: Michael G. Acker, Douglas S. Auld. Considerations for the design and reporting of enzyme assays in high-throughput screening applications. Perspectives in Science (2014) 1, 56-73).
(§2) PARP activity and inhibition was measured for human full length active PARP1 (CS207770, Merck), PARP2 (ab198766, Abeam) and PARP3 (ab79638, Abeam) proteins. Inhibitor compounds (Sodium Aurothiomalate and Aurothioglucose, Sigma-Aldrich and Auranofin, Bio-Techne) at different concentrations (1, 10 and 100 nM, 1, 10 and 100 μM final) were added to the reaction buffer, concocted as a 1:1 mixture of Merck kit buffer with 50 mM Tris-HCl, 100 mM NaCl, 5 mM MgCl2, 0.05% Tween-20, pH 8.0, Sigma), and incubated with PARP1 (2.5 ng/μL final), PARP2 (2.2 ng/μL final) or PARP3 (55 ng/μL final) at room temperature for 30 min.
(§3) Further, activated DNA (2 ng/μL final), […] (60 and 400 μM final for PARP1/2 and PARP3, respectively) and Nicotinamidase (200 ng/μL final) were added and incubated at 37° C. for 45 min. Total reaction volume was 25 μL.
(§4) Controls were executed as follows: • 1. Control of 0% inhibition contained reaction sample without inhibitor; • 2. Control of 100% inhibition of PARP1/2/3 activity contained reaction sample without β-NAD; and • 3. Control of 100% inhibition of DNA-dependent activity contained reaction sample without DNA.
(§5) After the plates were cooled down to room temperature, 25 μL of Merck proprietary reagent was added to the reaction mixture and incubated at mild shaking for 45 min. Fluorescence measurement was carried out at excitation wavelength of 410 nm and emission of 460 nm in Fluostar Omega microplate reader (BMG Labtech).
(§6) Total PARP1/2/3 activity was calculated as a difference between control (1) and control (2). DNA-independent activity was calculated as a difference between control (1) and control (3). DNA-dependent activity was calculated as the difference between the total PARP1/2/3 activity and DNA-independent activity. […] However, potentially up to 30% of PARP1 activity can be DNA-independent.
(§7) Inhibitory values were converted into percentages according to controls. Controls (1) and (3) were used in the case of PARP1, because only inhibition of DNA-dependent activity was observed, and the results are shown in FIG. 2. Controls (1) and (2) were used in the case of PARP2/3, because inhibition of total PARP2/3 activity (both DNA-dependent and DNA-independent reactions) was observed. FIGS. 3 and 4 show the percentage inhibition of PARP1 and PARP2 for different concentrations of aurothiomalate and aurothioglucose, respectively.

[2] = target: T2, human full length active PARP1 (Homo sapiens, UniProt P09874); assay: PARP inhibitor assay, fluorescence-based (PARP1 Enzyme Activity Assay kit), PARP1; assay type: biochemical
T2 construct: human full length active PARP1 (CS207770, Merck); purchased Merck CS207770
Source text: as §1, §2, §3, §4, §5, §6, §7

[3] = test system: rats fed a high adenine/low protein diet (chronic kidney disease); assay: Bone density in rat model on high adenine/low protein diet (CKD), SEM/TEM of long limb bone cross sections; assay type: in vivo; conditions: 50 mg/kg/day for 6 weeks; cortical area of long limb bone cross section; vs control and untreated CKD-diet rats; FIG. 8b
Description: The effects of minocycline on bone calcification processes were evaluated in an in vivo rat model. The rats were fed a high adenine/low protein diet in order to develop chronic kidney disease (CKD) and associated hyperphosphatemia and medial vascular calcification. It is also expected to cause increased rates of bone turnover, allowing the inventors to examine whether inhibition of PARP2 enzymatic activity during bone remodelling affected mineralization. 14 of the rats on the high adenine/low protein diet were treated with 50 mg/kg/day of minocycline for 6 weeks. At the end of the study period cross sections of the long limb bone were analysed using scanning electron microscopy (SEM) and transmission electron microscopy (TEM), see FIG. 7, and the area fraction of solid bone in the cortical area of the bone cross section was quantified from these images, see FIG. 8. Statistical significance was determined by Mann-Whitney test.

[4] = target: T3, human full length active PARP3 (Homo sapiens, UniProt Q9Y6F1); assay: PARP inhibitor assay, fluorescence-based, PARP3; assay type: biochemical; conditions: for IC50: inhibition of total PARP3 activity (controls 1 and 2), 400 μM β-NAD
T3 construct: human full length active PARP1 (CS207770, Merck), PARP2 (ab198766, Abeam) and PARP3 (ab79638, Abeam) proteins; purchased Abcam ab79638
T3 sequence (Q9Y6F1 1-533): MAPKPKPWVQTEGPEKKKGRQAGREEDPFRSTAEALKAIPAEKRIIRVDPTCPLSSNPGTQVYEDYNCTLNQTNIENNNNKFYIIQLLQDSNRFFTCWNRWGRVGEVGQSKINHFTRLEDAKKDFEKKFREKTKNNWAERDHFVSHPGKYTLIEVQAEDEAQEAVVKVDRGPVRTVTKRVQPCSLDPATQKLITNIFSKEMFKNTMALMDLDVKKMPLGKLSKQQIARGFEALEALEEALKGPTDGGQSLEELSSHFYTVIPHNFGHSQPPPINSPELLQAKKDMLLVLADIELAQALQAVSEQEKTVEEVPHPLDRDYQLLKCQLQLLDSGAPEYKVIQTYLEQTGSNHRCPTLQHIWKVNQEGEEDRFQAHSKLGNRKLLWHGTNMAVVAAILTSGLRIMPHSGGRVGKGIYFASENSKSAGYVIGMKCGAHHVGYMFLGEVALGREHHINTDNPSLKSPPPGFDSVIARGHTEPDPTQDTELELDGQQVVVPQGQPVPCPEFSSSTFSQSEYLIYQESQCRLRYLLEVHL
Source text: as §1, §2, §3, §4, §5, §6
Inhibitory values were converted into percentages according to controls. […]

[5] = inhibition of total PARP2 activity (controls 1 and 2), 60 μM β-NAD, read-out: IC50 PARP2
[6] = inhibition of DNA-dependent activity (controls 1 and 3), 60 μM β-NAD, activated DNA, read-out: IC50 PARP1

T1 sequence (Q9UGN5 whole entry): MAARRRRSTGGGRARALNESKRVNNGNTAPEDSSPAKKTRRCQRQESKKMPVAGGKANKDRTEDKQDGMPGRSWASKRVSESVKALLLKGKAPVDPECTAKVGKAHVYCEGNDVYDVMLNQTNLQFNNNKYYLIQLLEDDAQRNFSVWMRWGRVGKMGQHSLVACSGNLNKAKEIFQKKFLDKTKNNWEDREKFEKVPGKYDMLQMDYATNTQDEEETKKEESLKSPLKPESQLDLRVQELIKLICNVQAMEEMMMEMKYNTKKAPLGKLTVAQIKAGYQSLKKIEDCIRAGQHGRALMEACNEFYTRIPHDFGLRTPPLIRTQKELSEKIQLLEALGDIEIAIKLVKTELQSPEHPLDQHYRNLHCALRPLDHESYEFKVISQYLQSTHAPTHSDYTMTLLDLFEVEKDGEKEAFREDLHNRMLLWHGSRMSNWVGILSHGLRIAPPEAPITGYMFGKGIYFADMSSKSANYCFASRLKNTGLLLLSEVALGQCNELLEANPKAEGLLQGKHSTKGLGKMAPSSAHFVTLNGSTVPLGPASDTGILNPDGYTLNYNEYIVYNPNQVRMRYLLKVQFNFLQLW
T2 sequence (P09874 whole entry): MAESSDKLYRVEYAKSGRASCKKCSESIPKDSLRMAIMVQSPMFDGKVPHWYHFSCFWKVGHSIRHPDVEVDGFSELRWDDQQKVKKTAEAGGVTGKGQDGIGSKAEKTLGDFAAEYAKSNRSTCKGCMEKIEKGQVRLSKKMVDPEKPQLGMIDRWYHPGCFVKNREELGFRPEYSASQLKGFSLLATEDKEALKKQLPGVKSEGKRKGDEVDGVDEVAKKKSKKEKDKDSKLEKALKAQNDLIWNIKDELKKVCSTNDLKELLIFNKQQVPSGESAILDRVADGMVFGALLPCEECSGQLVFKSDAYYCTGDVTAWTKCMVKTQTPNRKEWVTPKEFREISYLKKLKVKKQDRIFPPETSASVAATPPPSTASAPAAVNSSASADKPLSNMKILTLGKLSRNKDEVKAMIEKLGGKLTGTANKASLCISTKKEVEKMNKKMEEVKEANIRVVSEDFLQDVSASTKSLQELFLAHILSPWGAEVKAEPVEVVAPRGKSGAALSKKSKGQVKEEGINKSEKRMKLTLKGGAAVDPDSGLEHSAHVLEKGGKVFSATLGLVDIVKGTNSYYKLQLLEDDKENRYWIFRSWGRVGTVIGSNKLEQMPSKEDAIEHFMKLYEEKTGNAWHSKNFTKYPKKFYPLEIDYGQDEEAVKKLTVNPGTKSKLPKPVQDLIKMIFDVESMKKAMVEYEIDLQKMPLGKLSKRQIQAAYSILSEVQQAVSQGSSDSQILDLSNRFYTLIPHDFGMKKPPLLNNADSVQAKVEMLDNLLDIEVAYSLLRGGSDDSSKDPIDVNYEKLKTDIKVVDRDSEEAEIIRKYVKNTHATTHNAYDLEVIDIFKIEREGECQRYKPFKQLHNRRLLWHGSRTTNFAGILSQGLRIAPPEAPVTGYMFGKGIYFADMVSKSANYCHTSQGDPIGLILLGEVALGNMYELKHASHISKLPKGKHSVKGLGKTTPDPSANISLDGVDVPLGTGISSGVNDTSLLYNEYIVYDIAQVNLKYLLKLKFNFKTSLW

Row | Compound | IC50 [1] [nM] | PARP2 vs PARP1 selectivity factor ([1]; ratio of PARP1 and PARP2 IC50) | IC50 ([2]; assay of Example 1, FIG. 6, read-out: IC50 PARP1) [nM] | reduction in the area fraction of solid bone [3] [%] | PARP3 inhibition (in words) [4] | IC50 [4] [nM] | PARP2 inhibition (in words) [1] | IC50 [1, 5] [nM] | DNA-independent PARP1 activity in the presence of the compound [2] | IC50 [2] [nM] | PARP1 inhibition (in words) ([2]; FIG. 2 and Table 1) | IC50 [2, 6] [nM]
1 | CN(C)c1ccc(O)c2c1C[C@H]1C[C@H]3[C@H](N(C)C)C(O)=C(C(N)=O)C(=O)[C@@]3(O)C(O)=C1C2=O [minocycline] | 2800 | greater than 70 × | 204000 | 25 |  |  |  |  |  |  |  | 
2 | OC[C@H]1OC([S][Au])[C@H](O)[C@@H](O)[C@@H]1O (some centres unmarked) [Aurothioglucose] |  |  |  |  | not inhibited | 1140 ± 20 | not inhibited | 4450 ± 623 | maintained | 120 ± 7 |  | 
3 | CC(=O)OC[C@H]1O[C@@H]([S-])[C@H](OC(C)=O)[C@@H](OC(C)=O)[C@@H]1OC(C)=O.CCP(CC)CC.[Au+] [Auranofin] |  |  |  |  |  |  | only inhibits PARP1 and PARP2 at very high concentrations | 1160 ± 81 |  |  | only inhibits PARP1 and PARP2 at very high concentrations | 1400 ± 98
4 | Sodium Aurothiomalate |  |  |  |  | not inhibited | 1160 ± 93 | not inhibited | 1190 ± 190 | maintained |  |  | 48 ± 7

Source: patent publication US20210052632A1, “SELECTIVE PARP1 INHIBITORS TO TREAT CANCER” (Cambridge Enterprise Limited, priority 2018, published 2021)
